Experimental data as given in patent publication US20040048791A1, “Method for treating neoplastic cells using cycloprodigiosin or salt thereof” (priority 2002, published 2004).
Entries after “also recorded” stand apart in the source; their conditions may differ. Structures can show the parent of a compound that is named as a salt.

Legend:
caspase-3 = experiment: Caspase-3 assay with DEVD-AFC on cell extracts; type: cell-based; conditions: HeLa cells, cPrG-HCl and TNFα, FIG. 1B; hydrochloride
Experimental: Assay for apoptotic processes: Cell viability was determined by dye exclusion assay using 0.1% trypan blue. DNA fragmentation was analyzed as described previously (Kawauchi, K. et al. (1997) Biochem. Biophys. Res. Commun. 237, 543-547). In the caspase-3 assay, cells were disrupted by freeze-thaw in an extraction buffer (50 mM Tris-HCl, pH7.4, 1 mM EGTA, 5 mM EDTA, 5 mM MgCl2, 1 mM APMSF, 10 μg/ml pepstatin, 10 μg/ml leupeptin, and 1 mM DTT). Then the suspension was centrifuged at 15,000 rpm for 20 min, and the supernatants obtained were incubated at 37° C. for 60 min in a reaction buffer (50 mM Tris-HCl, pH7.4, 1 mM EDTA, 10 mM EGTA) with 20 μM of the fluorogenic substrate DEVD-AFC (Peptide Institute, Inc., Japan). Cleavage of the substrates was quantified by measuring the fluorescence of 7-amino-4-trifluomethyl coumarin released using a spectrofluorometer (Shimadzu RF5000) with excitation at 380 mn and emission at 460 nm.
HeLa cells were treated with TNFα and cPrG.HCl and the effect of cPrG.HCl on apoptosis was examined by measuring DNA fragmentation and survivability.

CMV promoter = experiment: CMV promoter-dependent luciferase gene expression (control); type: cell-based; conditions: FIG. 2B
Experimental: (§1) Luciferase gene reporter assay and Kinase assays of IKK: HeLa cells were transfected with the reporter plasmids described above using Lipofectin (GIBCO BRL). After 24-48 hr, the luciferase activity was determined using the Luciferase Assay System (Promega). The kinase activity of IKKα and IKKβ were analyzed by immune complex kinase assay as described previously (Oka, S., Kamata, H., Kamata, K., Yagisawa, H. and Hirata, H. (2000) FEBS Lett. 472, 196-202). The substrates was using GST-IκBα(1-55) or GST-p65(399-551).

IKK [1] = target: T1, IKK (Homo sapiens, UniProt O14920+O15111); experiment: IKK activation in stimulated cells (immune complex kinase assay); type: cell-based; conditions: FIG. 2D
T1 construct: host or cells: HeLa cells (inferred)
Experimental: as §1
In order to find out the mechanism of NF-κB suppression by cPrG-HCl, the effect on the signal transduction system, which functions upstream of NF-κB, was analyzed. First, the effect of cPrG-HCl on IKK activity was examined. […] Next, the effect of cPrG-HCl on phosphorylation and degradation of IκB was analyzed by Western blotting using anti-IκB antibody (FIG. 2E). In FIG. 2E, black arrows indicate IκBα and white arrows indicate phosphorylated IκBα. […] Namely, cPrG-HCl suppressed NF-κB activation without suppressing the steps up to IκB degradation. Accordingly, nuclear translocation of NF-κB was analyzed by Western blotting using p65 and p50 which are components of NF-κB (FIG. 2F). […] Further, the state of NF-κB activation in the nucleus was analyzed by EMSA (electrophoretic mobility shift assay) (FIG. 2G). In FIG. 2G, “n. s.” means nonspecific band.

NF-κB = experiment: Nuclear translocation of NF-κB (Western blotting of p65 and p50); type: cell-based
Experimental: Electrophoretic mobility shift assay (EMSA): Nuclear extracts were prepared by the method of Schreiber, et al (Schreiber, E., Matthias, P., Muller, M. M. and Schaffner, W. (1989) Nucleic Acids Res. 17, 6419). Briefly, cells were solubilized with a buffer (10 mM HEPES-NaOH, pH 7.9, 10 mM KCl, 0.1 mM EDTA, 0.1 mM EGTA, 0.4% NP-40, 0.5 mM PMSF, 1 μg/ml aprotinin, 1 μg/ml leupeptin, 1 μg/ml pepstatin, 1 mM DTT), and then centrifuged at 10,000 rpm for 15 min. The pellets were resuspended in a buffer (20 mM HEPES-NaOH, pH 7.9, 400 mM NaCl, 1 mM EDTA, 1 mM EGTA, 1 mM PMSF, 1 μg/ml aprotinin, 1 μg/ml leupeptin, 1 μg/ml pepstatin, 1 μg/ml chymostatin, 1 μg/ml antipain, 1 mM DTT), and then centrifuged at 15,000 rpm for 15 min. […] The samples were electrophoresed on an 8% polyacrylamide gel and analyzed by an Imaging plate (Fuji Film). […]
In order to find out the mechanism of NF-κB suppression by cPrG-HCl, the effect on the signal transduction system, which functions upstream of NF-κB, was analyzed. […] Next, the effect of cPrG-HCl on phosphorylation and degradation of IκB was analyzed by Western blotting using anti-IκB antibody (FIG. 2E). […] Accordingly, nuclear translocation of NF-κB was analyzed by Western blotting using p65 and p50 which are components of NF-κB (FIG. 2F). […] Further, the state of NF-κB activation in the nucleus was analyzed by EMSA (electrophoretic mobility shift assay) (FIG. 2G). […]

PKA = PKA (Homo sapiens, UniProt P17612); experiment: PKA activity in vitro; type: biochemical; conditions: FIG. 13, hydrochloride
From the text: Accordingly, in order to identify the p65 kinase which cPrG-HCl suppressed, the effect of cPrG-HCl on PKA (FIG. 13), casein kinase II (CKII) (FIG. 12), and IκB kinase (IKK) (FIG. 14) was studied in vitro.

IKK [2] = target: T1, IKK; conditions: earlier abstract of the inventors (Kamata et al., 2000); cited from earlier work
JNK = conditions: earlier abstract of the inventors (Kamata et al., 2000); cited from earlier work

T1 sequence (O15111 whole entry): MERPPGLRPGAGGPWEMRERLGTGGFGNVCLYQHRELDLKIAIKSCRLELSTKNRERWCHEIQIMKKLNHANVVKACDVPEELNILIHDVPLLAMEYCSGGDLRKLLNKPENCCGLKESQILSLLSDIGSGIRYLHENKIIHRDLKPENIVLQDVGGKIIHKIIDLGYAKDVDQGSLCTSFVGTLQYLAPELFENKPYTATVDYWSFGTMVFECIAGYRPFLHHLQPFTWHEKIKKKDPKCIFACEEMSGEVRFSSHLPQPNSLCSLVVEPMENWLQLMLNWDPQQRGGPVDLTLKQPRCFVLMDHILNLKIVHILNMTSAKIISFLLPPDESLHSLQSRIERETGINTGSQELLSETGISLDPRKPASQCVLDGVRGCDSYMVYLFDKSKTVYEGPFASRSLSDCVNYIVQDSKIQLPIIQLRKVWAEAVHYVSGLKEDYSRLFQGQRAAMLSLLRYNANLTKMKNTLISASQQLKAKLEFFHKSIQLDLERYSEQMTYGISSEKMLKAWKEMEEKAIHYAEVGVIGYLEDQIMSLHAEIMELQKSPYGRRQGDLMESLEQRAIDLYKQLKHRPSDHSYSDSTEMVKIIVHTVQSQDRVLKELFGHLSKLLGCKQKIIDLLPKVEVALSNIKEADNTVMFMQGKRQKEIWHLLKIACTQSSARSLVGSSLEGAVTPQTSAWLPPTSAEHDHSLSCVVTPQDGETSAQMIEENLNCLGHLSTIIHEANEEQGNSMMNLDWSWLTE
T1 sequence (O14920 whole entry): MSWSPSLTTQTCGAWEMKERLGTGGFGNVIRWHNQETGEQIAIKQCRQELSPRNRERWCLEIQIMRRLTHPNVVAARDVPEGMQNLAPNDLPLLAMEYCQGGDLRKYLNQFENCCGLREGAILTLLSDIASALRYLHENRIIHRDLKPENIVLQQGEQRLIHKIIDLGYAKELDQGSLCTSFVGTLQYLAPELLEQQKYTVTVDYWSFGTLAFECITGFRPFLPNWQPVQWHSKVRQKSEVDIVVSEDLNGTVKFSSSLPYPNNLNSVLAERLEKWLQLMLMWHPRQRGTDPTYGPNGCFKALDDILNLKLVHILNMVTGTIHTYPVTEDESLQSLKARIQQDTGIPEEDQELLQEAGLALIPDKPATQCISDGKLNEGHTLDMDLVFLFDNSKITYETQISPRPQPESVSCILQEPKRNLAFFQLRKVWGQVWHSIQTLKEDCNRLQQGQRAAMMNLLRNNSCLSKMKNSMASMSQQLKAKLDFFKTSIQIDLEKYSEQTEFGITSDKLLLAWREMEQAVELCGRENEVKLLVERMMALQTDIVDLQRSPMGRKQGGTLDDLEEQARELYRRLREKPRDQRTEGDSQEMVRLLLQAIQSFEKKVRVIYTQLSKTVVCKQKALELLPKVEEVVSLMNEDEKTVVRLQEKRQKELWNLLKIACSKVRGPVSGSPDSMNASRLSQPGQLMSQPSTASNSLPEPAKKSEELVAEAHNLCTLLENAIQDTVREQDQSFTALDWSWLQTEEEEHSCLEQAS
T1 sequence (Q9Y6K9 whole entry partner): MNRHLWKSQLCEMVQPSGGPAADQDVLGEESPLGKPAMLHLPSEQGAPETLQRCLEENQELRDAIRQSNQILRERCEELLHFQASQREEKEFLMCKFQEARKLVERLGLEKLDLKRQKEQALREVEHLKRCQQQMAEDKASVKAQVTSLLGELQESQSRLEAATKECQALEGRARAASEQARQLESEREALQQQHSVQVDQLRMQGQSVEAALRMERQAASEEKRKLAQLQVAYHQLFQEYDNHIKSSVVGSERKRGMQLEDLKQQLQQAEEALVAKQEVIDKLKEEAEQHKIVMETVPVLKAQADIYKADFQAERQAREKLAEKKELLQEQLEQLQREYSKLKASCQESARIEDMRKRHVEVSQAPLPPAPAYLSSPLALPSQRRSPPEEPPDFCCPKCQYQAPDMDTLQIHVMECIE

COC1=CC(c2ccc[nH]2)=N/C1=C\c1[nH]c(C)c2c1C(C)CCC2 (centres unmarked) [cPrG-HCl, Cycloprodigiosin hydrochloride]
caspase-3 activation (caspase-3): markedly induced; also recorded: marked synergistic caspase-3 activation | expression of the CMV promoter-dependent luciferase gene (CMV promoter): did not inhibit | TNFα-induced IKK activation (IKK [1]): did not suppressed | nuclear translocation of NF-κB (NF-κB; PMA stimulation, FIG. 3B): inhibited neither | nuclear translocation of NF-κB (NF-κB; TNFα stimulation, FIG. 2F): not inhibited | effect on PKA activity (PKA): does not directly suppress; also recorded: no suppressive effect | IKK activation (IKK [2]): no suppressive effect | JNK activation (JNK): no suppressive effect
